Experiments:
[1] = Biodistribution in ICR mice after an iv injection; format: in vivo
Text: Biodistribution in ICR Mice After an iv Injection of [^18F][4-(6-{2-[2-(2-Fluoro-ethoxy)-ethoxy]-ethoxy}-naphthalen-2-yl)-phenyl]-methyl-amine in 1% EtOH/0.1% BSA in Water
(% dose/organ, avg of 3 mice±SD)
(% dose/g, avg of 3 mice±SD)
Biodistribution in ICR Mice After an iv Injection of [^18F]19a in 3% EtOH/0.1% BSA in Water
Biodistribution in ICR Mice After an iv Injection of [^18F]34a in 5% EtOH/0.1% BSA in Water
Biodistribution in ICR Mice After an iv Injection of [^18F]32a in 1% EtOH/0.1% BSA in Water

[2] = Log P (octanol/Na2HPO4 buffer pH 7.4); format: physicochemical; settings: pH 7.4
[3] = Blood, 2 min after iv injection
[4] = Blood, 30 min after iv injection
[5] = Bone, 30 min after iv injection
[6] = Brain, 2 min after iv injection
[7] = Brain, 30 min after iv injection
[8] = Heart, 2 min after iv injection
[9] = Heart, 30 min after iv injection
[10] = Kidney, 2 min after iv injection
[11] = Kidney, 30 min after iv injection
[12] = Kidney, 1 hr after iv injection
[13] = Kidney, 2 hr after iv injection
[14] = Liver, 2 min after iv injection
[15] = Liver, 30 min after iv injection
[16] = Lung, 30 min after iv injection
[17] = Muscle, 2 min after iv injection
[18] = Muscle, 30 min after iv injection
[19] = Muscle, 1 hr after iv injection
[20] = Muscle, 2 hr after iv injection
[21] = Skin, 30 min after iv injection
[22] = Spleen, 2 min after iv injection
[23] = Spleen, 30 min after iv injection
[24] = Spleen, 1 hr after iv injection
[25] = Spleen, 2 hr after iv injection

CNc1ccc2cc(-c3ccc(OCCOCCOCC[18F])cc3)ccc2c1 [[^18F]19a]
% dose/g [1, 3]: 6.66 ± 0.86 % dose/g
% dose/organ [1, 3]: 11.1 ± 0.91 % dose/organ
% dose/g [1, 4]: 4.15 ± 0.59 % dose/g
% dose/organ [1, 4]: 6.94 ± 0.59 % dose/organ
% dose/g ([1]; Blood, 1 hr after iv injection): 3.14 ± 0.37 % dose/g
% dose/organ ([1]; Blood, 1 hr after iv injection): 4.94 ± 0.09 % dose/organ
% dose/g ([1]; Blood, 2 hr after iv injection): 3.05 ± 0.26 % dose/g
% dose/organ ([1]; Blood, 2 hr after iv injection): 5.19 ± 0.14 % dose/organ
% dose/g ([1]; Bone, 2 min after iv injection): 1.32 ± 0.18 % dose/g
% dose/organ ([1]; Bone, 2 min after iv injection): 4.42 ± 0.82 % dose/organ
% dose/g [1, 5]: 0.78 ± 0.10 % dose/g
% dose/organ [1, 5]: 2.59 ± 0.17 % dose/organ
% dose/g ([1]; Bone, 1 hr after iv injection): 0.82 ± 0.21 % dose/g
% dose/organ ([1]; Bone, 1 hr after iv injection): 2.60 ± 0.41 % dose/organ
% dose/g ([1]; Bone, 2 hr after iv injection): 1.37 ± 0.15 % dose/g
% dose/organ ([1]; Bone, 2 hr after iv injection): 4.67 ± 0.26 % dose/organ
% dose/g [1, 6]: 5.55 ± 0.77 % dose/g
% dose/organ [1, 6]: 2.51 ± 0.29 % dose/organ
% dose/g [1, 7]: 1.29 ± 0.19 % dose/g
% dose/organ [1, 7]: 0.59 ± 0.07 % dose/organ
% dose/g ([1]; Brain, 1 hr after iv injection): 1.05 ± 0.20 % dose/g
% dose/organ ([1]; Brain, 1 hr after iv injection): 0.48 ± 0.06 % dose/organ
% dose/g ([1]; Brain, 2 hr after iv injection): 0.92 ± 0.10 % dose/g
% dose/organ ([1]; Brain, 2 hr after iv injection): 0.42 ± 0.06 % dose/organ
% dose/g [1, 8]: 5.67 ± 0.42 % dose/g
% dose/organ [1, 8]: 0.63 ± 0.02 % dose/organ
% dose/g [1, 9]: 1.74 ± 0.19 % dose/g
% dose/organ [1, 9]: 0.21 ± 0.02 % dose/organ
% dose/g ([1]; Heart, 1 hr after iv injection): 1.69 ± 0.35 % dose/g
% dose/organ ([1]; Heart, 1 hr after iv injection): 0.18 ± 0.01 % dose/organ
% dose/g ([1]; Heart, 2 hr after iv injection): 1.40 ± 0.08 % dose/g
% dose/organ ([1]; Heart, 2 hr after iv injection): 0.16 ± 0.01 % dose/organ
% dose/g [1, 10]: 7.88 ± 0.94 % dose/g
% dose/organ [1, 10]: 3.06 ± 0.21 % dose/organ
% dose/g [1, 11]: 3.61 ± 0.98 % dose/g
% dose/organ [1, 11]: 1.38 ± 0.26 % dose/organ
% dose/g [1, 12]: 3.82 ± 1.54 % dose/g
% dose/organ [1, 12]: 1.37 ± 0.25 % dose/organ
% dose/g [1, 13]: 2.41 ± 0.42 % dose/g
% dose/organ [1, 13]: 0.88 ± 0.12 % dose/organ
% dose/g [1, 14]: 27.0 ± 0.91 % dose/g
% dose/organ [1, 14]: 32.0 ± 1.81 % dose/organ
% dose/g [1, 15]: 21.5 ± 2.08 % dose/g
% dose/organ [1, 15]: 25.7 ± 0.95 % dose/organ
% dose/g ([1]; Liver, 1 hr after iv injection): 14.1 ± 1.85 % dose/g
% dose/organ ([1]; Liver, 1 hr after iv injection): 15.7 ± 1.34 % dose/organ
% dose/g ([1]; Liver, 2 hr after iv injection): 8.85 ± 0.76 % dose/g
% dose/organ ([1]; Liver, 2 hr after iv injection): 10.6 ± 0.65 % dose/organ
% dose/g ([1]; Lung, 2 min after iv injection): 9.19 ± 1.18 % dose/g
% dose/organ ([1]; Lung, 2 min after iv injection): 1.76 ± 0.20 % dose/organ
% dose/g [1, 16]: 3.44 ± 0.49 % dose/g
% dose/organ [1, 16]: 0.67 ± 0.05 % dose/organ
% dose/g ([1]; Lung, 1 hr after iv injection): 2.68 ± 0.48 % dose/g
% dose/organ ([1]; Lung, 1 hr after iv injection): 0.41 ± 0.07 % dose/organ
% dose/g ([1]; Lung, 2 hr after iv injection): 2.48 ± 0.48 % dose/g
% dose/organ ([1]; Lung, 2 hr after iv injection): 0.45 ± 0.11 % dose/organ
% dose/g [1, 17]: 0.77 ± 0.14 % dose/g
% dose/organ [1, 17]: 7.42 ± 1.87 % dose/organ
% dose/g [1, 18]: 0.75 ± 0.09 % dose/g
% dose/organ [1, 18]: 7.22 ± 0.42 % dose/organ
% dose/g [1, 19]: 0.87 ± 0.03 % dose/g
% dose/organ [1, 19]: 7.86 ± 0.68 % dose/organ
% dose/g [1, 20]: 0.62 ± 0.11 % dose/g
% dose/organ [1, 20]: 6.02 ± 0.62 % dose/organ
% dose/g ([1]; Skin, 2 min after iv injection): 0.70 ± 0.04 % dose/g
% dose/organ ([1]; Skin, 2 min after iv injection): 2.51 ± 0.07 % dose/organ
% dose/g [1, 21]: 1.37 ± 0.11 % dose/g
% dose/organ [1, 21]: 4.93 ± 0.08 % dose/organ
% dose/g ([1]; Skin, 1 hr after iv injection): 1.32 ± 0.18 % dose/g
% dose/organ ([1]; Skin, 1 hr after iv injection): 4.46 ± 0.05 % dose/organ
% dose/g ([1]; Skin, 2 hr after iv injection): 0.77 ± 0.13 % dose/g
% dose/organ ([1]; Skin, 2 hr after iv injection): 2.81 ± 0.29 % dose/organ
% dose/g [1, 22]: 6.94 ± 0.99 % dose/g
% dose/organ [1, 22]: 0.79 ± 0.29 % dose/organ
% dose/g [1, 23]: 5.03 ± 1.18 % dose/g
% dose/organ [1, 23]: 0.53 ± 0.04 % dose/organ
% dose/g [1, 24]: 3.60 ± 0.15 % dose/g
% dose/organ [1, 24]: 0.30 ± 0.00 % dose/organ
% dose/g [1, 25]: 3.38 ± 0.52 % dose/g
% dose/organ [1, 25]: 0.31 ± 0.02 % dose/organ
Log P [2]: 2.60

From patent US20100215579A1, “PHEN-NAPHTHALENE AND PHEN-QUINOLINE DERIVATIVES AND THEIR USE FOR BINDING AND IMAGING AMYLOID PLAQUES” (The Trustees of the University of Pennsylvania, priority 2007, published 2010)
